Laboratory results reported in ChEMBL document CHEMBL4024706 (Eur J Med Chem, 2017).

Key:
[1] = biological target: Ribosomal protein S6 kinase alpha-6 (Homo sapiens) (UniProt Q9UK32); test: Inhibition of wild-type human partial length N-terminal RSK4 kinase domain 1 (M1 to E397 residues) expressed in mammalian expression system assessed as residual activity at 1 uM by Kinomescan method relative to control
[2] = biological target: Platelet-derived growth factor receptor beta (Homo sapiens) (UniProt P09619); test: Inhibition of wild-type human partial length PDGFRB (V582 to Y1009 residues) expressed in bacterial expression system assessed as residual activity at 1 uM by Kinomescan method relative to control
[3] = biological target: Serine/threonine-protein kinase MAK (Homo sapiens) (UniProt P20794); test: Inhibition of wild-type human partial length MAK (M1 to P314 residues) expressed in bacterial expression system assessed as residual activity at 1 uM by Kinomescan method relative to control
[4] = biological target: Homeodomain-interacting protein kinase 2 (Homo sapiens) (UniProt Q9H2X6); test: Inhibition of wild-type human partial length HIPK2 (M153 to S564 residues) expressed in mammalian expression system assessed as residual activity at 1 uM by Kinomescan method relative to control
[5] = test system: Tyrosine-protein kinase ABL1 (Homo sapiens), P00519 [Q252H]; test: Inhibition of human phosphorylated ABL1 Q252H mutant expressed in mammalian expression system assessed as residual activity at 1 uM by Kinomescan method relative to control
[6] = biological target: Serine/threonine-protein kinase haspin (Homo sapiens) (UniProt Q8TF76); test: Inhibition of wild-type human partial length HASPIN (I452 to K798 residues) expressed in mammalian expression system assessed as residual activity at 1 uM by Kinomescan method relative to control
[7] = biological target: STE20/SPS1-related proline-alanine-rich protein kinase (Homo sapiens) (UniProt Q9UEW8); test: Inhibition of wild-type human partial length STK39 (P43 to I357 residues) expressed in mammalian expression system assessed as residual activity at 1 uM by Kinomescan method relative to control
[8] = biological target: Phosphatidylinositol 4-phosphate 5-kinase type-1 alpha (Homo sapiens) (UniProt Q99755); test: Inhibition of wild-type human full length PIP5K1A (M1 to H562 residues) expressed in bacterial expression system assessed as residual activity at 1 uM by Kinomescan method relative to control
[9] = biological target: Serine/threonine-protein kinase RIO3 (Homo sapiens) (UniProt O14730); test: Inhibition of wild-type human full length RIOK3 (M1 to E519 residues) expressed in bacterial expression system assessed as residual activity at 1 uM by Kinomescan method relative to control
[10] = biological target: Serine/threonine-protein kinase MRCK beta (Homo sapiens) (UniProt Q9Y5S2); test: Inhibition of wild-type human partial length MRCKB (L56 to S417 residues) expressed in bacterial expression system assessed as residual activity at 1 uM by Kinomescan method relative to control
[11] = biological target: LIM domain kinase 1 (Homo sapiens) (UniProt P53667); test: Inhibition of wild-type human full length LIMK1 (M1 to D647 residues) expressed in bacterial expression system assessed as residual activity at 1 uM by Kinomescan method relative to control
[12] = biological target: Cyclin-dependent kinase 16 (Homo sapiens) (UniProt Q00536); test: Inhibition of wild-type human partial length PCTK1 (G160 to A474 residues) expressed in mammalian expression system assessed as residual activity at 1 uM by Kinomescan method relative to control
Sequence of Cyclin-dependent kinase 16 (Homo sapiens) (Q00536 whole entry, the tested form may be a part): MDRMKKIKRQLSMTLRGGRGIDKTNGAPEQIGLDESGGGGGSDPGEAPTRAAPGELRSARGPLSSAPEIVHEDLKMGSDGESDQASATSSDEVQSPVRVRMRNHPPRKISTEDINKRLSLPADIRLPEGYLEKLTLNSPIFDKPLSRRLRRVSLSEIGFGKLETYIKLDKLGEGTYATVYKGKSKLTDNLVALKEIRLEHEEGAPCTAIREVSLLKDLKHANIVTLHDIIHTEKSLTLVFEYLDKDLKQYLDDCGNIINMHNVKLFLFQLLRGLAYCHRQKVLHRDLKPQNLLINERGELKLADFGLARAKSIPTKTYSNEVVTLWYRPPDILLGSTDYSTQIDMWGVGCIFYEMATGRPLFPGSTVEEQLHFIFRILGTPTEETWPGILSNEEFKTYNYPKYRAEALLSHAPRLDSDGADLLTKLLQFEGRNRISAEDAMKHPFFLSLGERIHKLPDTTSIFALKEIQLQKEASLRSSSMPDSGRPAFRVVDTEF

[13] = biological target: cAMP-dependent protein kinase catalytic subunit beta (Homo sapiens) (UniProt P22694); test: Inhibition of wild-type human full length PKAC-beta (M1 to F351 residues) expressed in bacterial expression system assessed as residual activity at 1 uM by Kinomescan method relative to control
[14] = biological target: Calcium/calmodulin-dependent protein kinase kinase 1 (Homo sapiens) (UniProt Q8N5S9); test: Inhibition of wild-type human partial length CAMKK1 (R65 to E414 residues) expressed in bacterial expression system assessed as residual activity at 1 uM by Kinomescan method relative to control
[15] = biological target: Interleukin-1 receptor-associated kinase 4 (Homo sapiens) (UniProt Q9NWZ3); test: Inhibition of wild-type human partial length IRAK4 (M1 to S460 residues) expressed in mammalian expression system assessed as residual activity at 1 uM by Kinomescan method relative to control
Sequence of Interleukin-1 receptor-associated kinase 4 (Homo sapiens) (Q9NWZ3 whole entry, the tested form may be a part): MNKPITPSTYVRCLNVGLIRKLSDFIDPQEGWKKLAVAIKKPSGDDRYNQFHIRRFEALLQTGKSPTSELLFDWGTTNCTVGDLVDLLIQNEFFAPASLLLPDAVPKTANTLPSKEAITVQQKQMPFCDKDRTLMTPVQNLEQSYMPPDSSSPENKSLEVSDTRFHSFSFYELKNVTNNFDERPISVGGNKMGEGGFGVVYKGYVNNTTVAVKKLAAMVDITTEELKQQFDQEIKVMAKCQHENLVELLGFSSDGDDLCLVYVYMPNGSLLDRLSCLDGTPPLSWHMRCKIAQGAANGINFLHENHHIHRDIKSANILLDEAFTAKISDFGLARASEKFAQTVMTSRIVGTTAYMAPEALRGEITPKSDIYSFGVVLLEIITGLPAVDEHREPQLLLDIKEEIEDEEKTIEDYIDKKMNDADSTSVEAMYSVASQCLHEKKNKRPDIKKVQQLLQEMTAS

[16] = Growth inhibition of human M07e cells; assay type: functional; conditions: Homo sapiens, M-07e
[17] = biological target: MAP kinase-activated protein kinase 2 (Homo sapiens) (UniProt P49137); test: Inhibition of wild-type human partial length MAPKAPK2 (V48 to D345 residues) expressed in bacterial expression system assessed as residual activity at 1 uM by Kinomescan method relative to control
Sequence of MAP kinase-activated protein kinase 2 (Homo sapiens) (P49137 whole entry, looked up, the tested form may be a part): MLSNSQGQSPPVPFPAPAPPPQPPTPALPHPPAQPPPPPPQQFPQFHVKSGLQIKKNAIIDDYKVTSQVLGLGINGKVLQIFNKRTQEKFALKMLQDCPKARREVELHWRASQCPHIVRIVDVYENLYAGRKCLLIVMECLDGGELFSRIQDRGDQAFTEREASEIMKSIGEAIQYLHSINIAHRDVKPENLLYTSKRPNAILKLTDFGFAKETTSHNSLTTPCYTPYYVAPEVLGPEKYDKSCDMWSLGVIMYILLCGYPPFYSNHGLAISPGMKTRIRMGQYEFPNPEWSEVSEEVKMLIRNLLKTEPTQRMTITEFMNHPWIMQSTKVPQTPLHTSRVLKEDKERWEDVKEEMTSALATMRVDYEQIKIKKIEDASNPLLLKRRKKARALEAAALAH

Pfeiffer = test: Induction of apoptosis in human Pfeiffer cells assessed as induction of caspase-3 cleavage after 48 hrs by immunoblot; assay type: functional, cell-based
[18] = test system: Tyrosine-protein kinase ABL1 (Homo sapiens), P00519 [Q252H]; test: Inhibition of human non-phosphorylated ABL1 Q252H mutant (S229 to K512 residues) expressed in mammalian expression system assessed as residual activity at 1 uM by Kinomescan method relative to control
[19] = biological target: Ribosomal protein S6 kinase alpha-6 (Homo sapiens) (UniProt Q9UK32); test: Inhibition of wild-type human partial length C-terminal RSK4 kinase domain 2 (I401 to Y711 residues) expressed in bacterial expression system assessed as residual activity at 1 uM by Kinomescan method relative to control
[20] = test system: Phosphatidylinositol 4,5-bisphosphate 3-kinase catalytic subunit alpha isoform (Homo sapiens), P42336 [E545K]; test: Inhibition of human partial length PIK3CA E545K mutant (R108 to N1068 residues) expressed in mammalian expression system assessed as residual activity at 1 uM by Kinomescan method relative to control
Sequence of Phosphatidylinositol 4,5-bisphosphate 3-kinase catalytic subunit alpha isoform (Homo sapiens), P42336 [E545K] (P42336 whole entry E545K, the tested form may be a part, canonical isoform): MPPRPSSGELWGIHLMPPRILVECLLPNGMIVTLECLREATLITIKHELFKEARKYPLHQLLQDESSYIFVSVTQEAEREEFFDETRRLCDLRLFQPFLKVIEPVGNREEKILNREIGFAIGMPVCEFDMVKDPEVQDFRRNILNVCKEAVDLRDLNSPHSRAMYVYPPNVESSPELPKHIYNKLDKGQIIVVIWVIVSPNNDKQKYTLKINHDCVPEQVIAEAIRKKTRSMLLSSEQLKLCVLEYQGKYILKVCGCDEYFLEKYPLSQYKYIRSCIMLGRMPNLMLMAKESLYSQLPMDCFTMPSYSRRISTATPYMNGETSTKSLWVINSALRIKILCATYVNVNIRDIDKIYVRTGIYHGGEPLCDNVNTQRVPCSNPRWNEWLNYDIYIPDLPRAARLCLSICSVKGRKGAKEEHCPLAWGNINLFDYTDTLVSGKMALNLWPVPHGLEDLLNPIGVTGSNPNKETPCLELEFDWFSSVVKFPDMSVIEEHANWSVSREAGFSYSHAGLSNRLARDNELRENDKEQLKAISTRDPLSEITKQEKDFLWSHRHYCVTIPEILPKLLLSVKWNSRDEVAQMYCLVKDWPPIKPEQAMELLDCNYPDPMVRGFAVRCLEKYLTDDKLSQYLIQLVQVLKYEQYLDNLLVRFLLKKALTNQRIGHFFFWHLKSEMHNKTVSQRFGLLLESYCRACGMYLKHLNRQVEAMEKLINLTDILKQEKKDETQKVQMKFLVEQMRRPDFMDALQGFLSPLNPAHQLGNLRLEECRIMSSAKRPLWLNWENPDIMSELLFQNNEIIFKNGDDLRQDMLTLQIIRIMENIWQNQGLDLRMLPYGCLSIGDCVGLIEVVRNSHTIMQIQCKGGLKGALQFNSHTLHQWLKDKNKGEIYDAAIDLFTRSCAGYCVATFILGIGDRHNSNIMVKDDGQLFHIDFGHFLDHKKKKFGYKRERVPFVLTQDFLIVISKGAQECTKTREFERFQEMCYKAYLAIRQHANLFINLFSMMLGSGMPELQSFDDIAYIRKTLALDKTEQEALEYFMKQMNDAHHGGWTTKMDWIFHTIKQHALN

[21] = biological target: Tyrosine-protein kinase BTK (Homo sapiens, UniProt Q06187); test: Inhibition of BTK auto-phosphorylation at Y223 in human Pfeiffer cells measured after 4 hrs by chemiluminescent assay
Sequence of Tyrosine-protein kinase BTK (Q06187 whole entry, the tested form may be a part): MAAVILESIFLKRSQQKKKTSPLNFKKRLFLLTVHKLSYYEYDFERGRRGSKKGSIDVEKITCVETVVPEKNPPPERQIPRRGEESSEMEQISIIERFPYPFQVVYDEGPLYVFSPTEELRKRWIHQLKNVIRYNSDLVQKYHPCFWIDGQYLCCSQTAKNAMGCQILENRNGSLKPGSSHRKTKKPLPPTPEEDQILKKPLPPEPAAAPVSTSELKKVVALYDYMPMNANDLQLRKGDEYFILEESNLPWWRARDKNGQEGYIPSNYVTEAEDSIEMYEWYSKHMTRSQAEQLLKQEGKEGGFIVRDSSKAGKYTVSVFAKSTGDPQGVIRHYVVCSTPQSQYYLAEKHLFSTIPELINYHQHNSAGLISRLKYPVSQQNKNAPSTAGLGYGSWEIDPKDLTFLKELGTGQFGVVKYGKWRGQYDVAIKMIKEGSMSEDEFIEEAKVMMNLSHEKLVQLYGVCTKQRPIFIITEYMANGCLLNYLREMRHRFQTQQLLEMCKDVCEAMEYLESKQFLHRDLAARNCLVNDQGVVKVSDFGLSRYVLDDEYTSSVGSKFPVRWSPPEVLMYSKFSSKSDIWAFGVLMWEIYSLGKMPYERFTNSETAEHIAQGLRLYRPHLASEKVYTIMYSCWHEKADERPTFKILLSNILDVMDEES

[22] = biological target: NUAK family SNF1-like kinase 1 (Homo sapiens) (UniProt O60285); test: Inhibition of wild-type human partial length ARK5 (E25 to I332 residues) expressed in bacterial expression system assessed as residual activity at 1 uM by Kinomescan method relative to control
[23] = biological target: Ribosomal protein S6 kinase alpha-4 (Homo sapiens) (UniProt O75676); test: Inhibition of wild-type human partial length C-terminal RPS6KA4 kinase domain 2 (M375 to T705 residues) expressed in mammalian expression system assessed as residual activity at 1 uM by Kinomescan method relative to control
[24] = biological target: Serine/threonine-protein kinase/endoribonuclease IRE1 (Homo sapiens) (UniProt O75460); test: Inhibition of wild-type human partial length ERN1 (S551 to E852 residues) expressed in mammalian expression system assessed as residual activity at 1 uM by Kinomescan method relative to control
Sequence of Serine/threonine-protein kinase/endoribonuclease IRE1 (Homo sapiens) (O75460 19-977 limits assumed): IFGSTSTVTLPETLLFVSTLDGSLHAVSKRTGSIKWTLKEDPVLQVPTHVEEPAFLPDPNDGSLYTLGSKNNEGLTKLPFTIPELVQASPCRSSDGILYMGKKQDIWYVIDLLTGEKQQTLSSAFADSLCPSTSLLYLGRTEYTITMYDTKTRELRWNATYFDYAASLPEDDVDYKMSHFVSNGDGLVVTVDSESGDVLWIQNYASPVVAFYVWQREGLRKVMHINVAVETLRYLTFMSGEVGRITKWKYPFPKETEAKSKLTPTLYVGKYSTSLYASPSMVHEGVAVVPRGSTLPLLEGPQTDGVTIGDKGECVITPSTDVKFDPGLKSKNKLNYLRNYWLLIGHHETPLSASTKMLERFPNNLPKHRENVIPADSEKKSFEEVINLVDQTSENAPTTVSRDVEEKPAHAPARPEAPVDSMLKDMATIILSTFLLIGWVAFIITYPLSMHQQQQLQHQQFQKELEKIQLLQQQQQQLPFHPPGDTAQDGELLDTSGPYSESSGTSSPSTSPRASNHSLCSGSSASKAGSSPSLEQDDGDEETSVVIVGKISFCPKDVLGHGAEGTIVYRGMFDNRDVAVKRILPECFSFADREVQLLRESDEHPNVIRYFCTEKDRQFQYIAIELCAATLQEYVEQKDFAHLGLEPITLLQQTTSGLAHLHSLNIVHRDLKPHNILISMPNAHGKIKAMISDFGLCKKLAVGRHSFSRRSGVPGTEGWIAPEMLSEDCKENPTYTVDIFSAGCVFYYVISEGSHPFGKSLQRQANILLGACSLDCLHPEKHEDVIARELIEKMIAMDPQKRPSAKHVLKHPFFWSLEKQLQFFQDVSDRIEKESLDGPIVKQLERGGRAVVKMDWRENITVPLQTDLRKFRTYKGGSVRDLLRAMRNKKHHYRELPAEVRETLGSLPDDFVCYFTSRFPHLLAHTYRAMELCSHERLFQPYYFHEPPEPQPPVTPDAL

[25] = biological target: Serine/threonine-protein kinase Nek3 (Homo sapiens) (UniProt P51956); test: Inhibition of wild-type human full length NEK3 (M1 to R506 residues) expressed in mammalian expression system assessed as residual activity at 1 uM by Kinomescan method relative to control

Sequence of Ribosomal protein S6 kinase alpha-6 (Homo sapiens) (Q9UK32 whole entry, the tested form may be a part, canonical isoform): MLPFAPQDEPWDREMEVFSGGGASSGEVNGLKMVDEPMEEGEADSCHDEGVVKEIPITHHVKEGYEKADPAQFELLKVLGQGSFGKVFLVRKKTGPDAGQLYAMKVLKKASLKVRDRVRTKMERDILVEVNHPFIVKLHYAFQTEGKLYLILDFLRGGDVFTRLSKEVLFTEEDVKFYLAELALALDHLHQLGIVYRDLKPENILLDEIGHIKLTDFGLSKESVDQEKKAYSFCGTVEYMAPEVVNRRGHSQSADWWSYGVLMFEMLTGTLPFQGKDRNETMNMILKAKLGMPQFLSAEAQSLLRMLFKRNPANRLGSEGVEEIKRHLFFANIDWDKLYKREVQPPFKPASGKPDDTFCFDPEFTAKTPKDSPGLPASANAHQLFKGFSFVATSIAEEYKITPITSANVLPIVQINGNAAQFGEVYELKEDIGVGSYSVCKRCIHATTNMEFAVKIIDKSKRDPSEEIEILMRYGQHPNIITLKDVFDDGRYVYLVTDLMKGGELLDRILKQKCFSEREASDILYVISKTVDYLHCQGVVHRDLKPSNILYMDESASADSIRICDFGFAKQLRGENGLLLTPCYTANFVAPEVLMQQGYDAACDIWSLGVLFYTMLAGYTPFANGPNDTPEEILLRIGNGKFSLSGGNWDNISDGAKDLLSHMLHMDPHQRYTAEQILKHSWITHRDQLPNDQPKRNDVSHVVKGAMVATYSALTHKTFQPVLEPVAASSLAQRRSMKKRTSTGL

## C=CC(=O)Nc1cc(Nc2cc(-c3cccc(NC(=O)c4ccc(C(C)(C)C)cc4)c3C)cn(C)c2=O)ccc1C(=O)N1CCOCC1
[1]
  Activity: 90%
[2]
  Activity: 92%
[3]
  Activity: 84%
[4]
  Activity: 100%
[5]
  Activity: 100%
[6]
  Activity: 54%
[7]
  Activity: 70%
[8]
  Activity: 95%
[9]
  Activity: 78%
[10]
  Activity: 98%
[11]
  Activity: 86%
[12]
  Activity: 99%
[13]
  Activity: 96%
[14]
  Activity: 100%
[15]
  Activity: 100%
[16]
  GI50: 7.3 µM
[17]
  Activity: 88%
Pfeiffer
  Activity: Dose-dependent effect
[18]
  Activity: 100%
[19]
  Activity: 89%
[20]
  Activity: 100%
[21]
  EC50: < 0.03 µM
[22]
  Activity: 100%
[23]
  Activity: 100%
[24]
  Activity: 100%
[25]
  Activity: 97%
